The source of these data is patent US20240252450A1, “TREATMENT FOR EPILEPTIC SEIZURES” (priority 2021, published 2024).

This data set concerns epileptic seizures. The experiment in a line: Clinical treatment of the inventor's child with mixed epileptic seizure types (case report). The format is in vivo, human. The note with it: for effect on the child's epileptic seizures: onset, hundreds of seizures a day, substance given without cannabis extract. An excerpt:
The inventor has a child, who, experienced an abrupt onset of hundreds of absence seizures a day that developed into mixed epileptic seizure types, including absence, focal, atonic, myoclonic-atonic, tonic, and eventually a 10-hour status epilepticus seizure. The Inventor was told their child would die in their sleep from SUDEP and no medication will be able to treat them. […] The child is […] now and has developed normally.

Regarding `CC[C@@H](C(N)=O)N1CCCC1=O` [Keppra, Levetiracetam], the “effect on the child's epileptic seizures” value was “reduced the frequency of the seizures but could not fully control them”. Besides, for the setting “child with intractable seizures, Keppra without cannabis extract”, the side effects entry was “side effects of nausea and “Keppra rage””.
As to `C=C(C)[C@@H]1CCC(C)=C[C@H]1c1c(O)cc(CCCCC)cc1O` [CBD, cannabidiol], the “effect on the child's epileptic seizures” value is on record as “neither did CBD alone”.
